Article PMC2800825 (Biochemistry, 2009)
Substitutions are numbered along the chain they refer to. Several values for one entry are separate records, joined by “and”; a condition that tells them apart may be missing. Equal entries are not always repeated. Where two headings read alike, the source gives them in different places.

Assays:
[1] = target: T1, Asn111Asp mutant E. coli DHOD (Escherichia coli, UniProt P0A7E1, N111D); settings: protio-DHO vs 5,5,6-^2H3 DHO, pH 8.5, 4 °C
[2] = target: T2, Asn246Ala mutant E. coli DHOD (Escherichia coli, UniProt P0A7E1, N246A); settings: protio-DHO vs 5,5,6-^2H3 DHO, pH 8.5, 4 °C
[3] = target: T3, Asn111Ala mutant E. coli DHOD (Escherichia coli, UniProt P0A7E1, N111A); settings: protio-DHO vs 5,5,6-^2H3 DHO, pH 8.5, 4 °C
[4] = target: T4, Thr247Ala mutant E. coli DHOD (Escherichia coli, UniProt P0A7E1, T247A); settings: protio-DHO vs 5,5,6-^2H3 DHO, pH 8.5, 4 °C
[5] = target: T5, Asn172Ala/Asn246Ala mutant E. coli DHOD (Escherichia coli, UniProt P0A7E1, N172A/N246A); format: biochemical; settings: pH 8.5, footnote b printed, text says examined at 25°
T5 sequence (P0A7E1 1-336 N172A/N246A): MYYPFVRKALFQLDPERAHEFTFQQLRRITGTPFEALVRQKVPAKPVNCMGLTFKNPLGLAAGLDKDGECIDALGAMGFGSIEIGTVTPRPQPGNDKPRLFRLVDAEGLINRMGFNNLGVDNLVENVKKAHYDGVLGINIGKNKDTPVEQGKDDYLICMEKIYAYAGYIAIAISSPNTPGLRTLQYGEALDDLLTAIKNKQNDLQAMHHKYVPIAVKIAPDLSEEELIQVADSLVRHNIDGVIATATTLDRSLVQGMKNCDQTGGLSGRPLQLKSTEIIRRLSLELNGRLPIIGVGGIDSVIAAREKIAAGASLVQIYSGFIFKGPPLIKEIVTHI

[6] = target: T4, Thr247Ala mutant E. coli DHOD; test: Reductive half-reaction with DHO, anaerobic stopped-flow; format: biochemical
[7] = target: T2, Asn246Ala mutant E. coli DHOD; test: as above; format: biochemical
[8] = target: T6, Thr247Ser mutant E. coli DHOD (Escherichia coli, UniProt P0A7E1, T247S); test: as above; format: biochemical
T6 sequence (P0A7E1 1-336 T247S): T5 sequence (P0A7E1 1-336 N172A/N246A) with A172N, A246N, T247S

[9] = target: T7, Asn172Ala mutant E. coli DHOD (Escherichia coli, UniProt P0A7E1, N172A); test: as above; format: biochemical
T7 sequence (P0A7E1 1-336 N172A): T5 sequence (P0A7E1 1-336 N172A/N246A) with A246N

[10] = target: T8, Asn177Ala mutant E. coli DHOD (Escherichia coli, UniProt P0A7E1, N177A); test: as above; format: biochemical
[11] = target: T3, Asn111Ala mutant E. coli DHOD; test: as above; format: biochemical
[12] = target: T1, Asn111Asp mutant E. coli DHOD; test: as above; format: biochemical
wild-type E. coli DHOD [13] = target: T9, wild-type E. coli DHOD (Escherichia coli, UniProt P0A7E1); settings: cited from earlier work
T9 sequence (P0A7E1 1-336): T5 sequence (P0A7E1 1-336 N172A/N246A) with A172N, A246N

[14] = target: T5, Asn172Ala/Asn246Ala mutant E. coli DHOD; settings: pH 8.5, 25 °C
[15] = target: T6, Thr247Ser mutant E. coli DHOD; settings: pH 8.5, 25 °C
wild-type E. coli DHOD [16] = target: T9, wild-type E. coli DHOD; test: biochemical
[17] = target: T6, Thr247Ser mutant E. coli DHOD; test: biochemical
[18] = target: T3, Asn111Ala mutant E. coli DHOD; settings: pH 8.5, 25 °C
[19] = target: T1, Asn111Asp mutant E. coli DHOD; settings: pH 8.5, 25 °C
[20] = target: T8, Asn177Ala mutant E. coli DHOD; settings: pH 8.5, 25 °C
[21] = target: T5, Asn172Ala/Asn246Ala mutant E. coli DHOD; test: biochemical
[22] = target: T4, Thr247Ala mutant E. coli DHOD; settings: pH 8.5, 25 °C
[23] = target: T8, Asn177Ala mutant E. coli DHOD; test: biochemical
[24] = target: T4, Thr247Ala mutant E. coli DHOD; test: biochemical
[25] = target: T7, Asn172Ala mutant E. coli DHOD; settings: pH 8.5, 25 °C
[26] = target: T7, Asn172Ala mutant E. coli DHOD; test: biochemical
[27] = target: T2, Asn246Ala mutant E. coli DHOD; settings: pH 8.5, 25 °C
[28] = target: T2, Asn246Ala mutant E. coli DHOD; test: biochemical; settings: Kd of OA, Asn246Ala oxidized enzyme, pH 8.5, 25 °C
[29] = target: T1, Asn111Asp mutant E. coli DHOD; test: biochemical
[30] = target: T3, Asn111Ala mutant E. coli DHOD; test: biochemical

T8 sequence (P0A7E1 whole entry N177A): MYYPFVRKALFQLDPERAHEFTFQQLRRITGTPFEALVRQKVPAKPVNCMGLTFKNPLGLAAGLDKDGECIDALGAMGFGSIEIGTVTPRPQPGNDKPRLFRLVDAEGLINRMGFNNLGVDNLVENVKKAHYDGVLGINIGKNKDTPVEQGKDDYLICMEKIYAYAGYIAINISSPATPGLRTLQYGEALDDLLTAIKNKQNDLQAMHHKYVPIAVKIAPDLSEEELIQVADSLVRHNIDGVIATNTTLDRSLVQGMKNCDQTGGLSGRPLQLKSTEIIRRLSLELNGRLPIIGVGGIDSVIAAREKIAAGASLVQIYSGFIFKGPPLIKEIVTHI
T1 sequence (P0A7E1 whole entry N111D): as the sequence (P0A7E1 whole entry N177A) above, with N111D, A177N counted along it
T3 sequence (P0A7E1 whole entry N111A): as the sequence (P0A7E1 whole entry N177A) above, with N111A, A177N counted along it
T4 sequence (P0A7E1 whole entry T247A): as the sequence (P0A7E1 whole entry N177A) above, with A177N, T247A counted along it
T2 sequence (P0A7E1 whole entry N246A): as the sequence (P0A7E1 whole entry N177A) above, with A177N, N246A counted along it

SMILES: [2H]C1([2H])C(=O)NC(=O)NC1([2H])C(=O)O (stereo not drawn) [5,5,6-^2H3 DHO]
- KIE ^D(kred/Kd) [1]: 5.3 ± 0.2
- KIE ^D(kred/Kd) [2]: 6.3 ± 0.4
- KIE ^D(kred/Kd) [3]: 5.9 ± 0.3
- KIE ^D(kred/Kd) [4]: 6.3 ± 0.4

SMILES: NC(CO)(CO)CO.O=C(O)c1cc(=O)[nH]c(=O)[nH]1 [OA-Tris salt]
- solubility in water: at least 400 mM

SMILES: O=C1C[C@@H](C(=O)O)NC(=O)N1 [DHO, dihydroorotate]
- kred (reduction rate constant) [5]: ~0.002 ^b s^−1
- Kd [6]: 198 ± 16 µM
- fold decrease in reduction rate constant vs wild-type ([6]; Thr247Ala): ~ 8 fold
- fold increase in Kd of DHO vs wild-type ([6]; Thr247Ala): ~ 10 fold
- kred (reduction rate constant) ([6]; Thr247Ala, pH 8.5, 4 °C): 5.52 ± 0.09 s⁻¹
- Kd [7]: 47000 µM
- fold decrease in reduction rate constant vs wild-type ([7]; Asn246Ala): ~ 570 fold
- fold increase in apparent Kd for DHO vs wild-type ([7]; Asn246Ala): ~ 2,000 fold
- kred (reduction rate constant) ([7]; Asn246Ala, pH 8.5, 4 °C): 0.081 ± 0.002 s⁻¹
- Kd [8]: 45 ± 5 µM
- kred (reduction rate constant) ([8]; Thr247Ser, pH 8.5, 4 °C): 58.8 ± 1.1 s⁻¹
- observed rate constant of the final phase, independent of DHO concentration ([8]; Thr247Ser, pH 8.5, 4 °C): ~ 0.02 s^−1
- Kd [9]: 278 ± 9 µM
- fold increase in Kd of DHO vs wild-type ([9]; Asn172Ala): ~ 14 fold
- kred (reduction rate constant) ([9]; Asn172Ala, pH 8.5, 4 °C): 0.00437 ± 0.0002 s⁻¹ and 0.00437 ± 0.00002 s⁻¹
- Kd [10]: 22 ± 2 µM
- fold decrease in reduction rate constant vs wild-type ([10]; Asn177Ala): ~ 800 fold
- kred (reduction rate constant) ([10]; Asn177Ala, pH 8.5, 4 °C): 0.0586 ± 0.0004 s⁻¹
- Kd [11]: 1040 µM
- fold decrease in kred vs wild-type ([11]; Asn111Ala): ~ 4600 fold
- fold increase in Kd of DHO vs wild-type ([11]; Asn111Ala): ~ 50 fold
- kred (reduction rate constant) ([11]; Asn111Ala, pH 8.5, 4 °C): 0.0100 ± 0.0001 s⁻¹
- fold slower reduction rate constant than wild-type [12]: ~ 450 fold
- kred (reduction rate constant) ([12]; pH 8.5, 4 °C, estimated): ~0.1 s⁻¹
- kred (reduction rate constant) (wild-type E. coli DHOD [13]; pH 8.5, 4 °C): 46 s⁻¹
- Kd (wild-type E. coli DHOD [13]; read-out: Apparent Kd,DHO, pH 8.5, 4 °C): 20 µM

SMILES: O=C(O)c1cc(=O)[nH]c(=O)[nH]1 [OA, orotate]
- Kd(mutant)/Kd(Wild-Type) for OA [14]: ~ 14700
- Kd(mutant)/Kd(Wild-Type) for OA [15]: 1.1
- Kd (wild-type E. coli DHOD [16]): 3.4 ± 0.8 µM
- Kd [17]: 3.8 ± 0.5 µM
- Kd(mutant)/Kd(Wild-Type) for OA [18]: 14
- Kd(mutant)/Kd(Wild-Type) for OA [19]: ≫ 22000
- Kd(mutant)/Kd(Wild-Type) for OA [20]: 8
- Kd [21]: ~50000 µM
- Kd(mutant)/Kd(Wild-Type) for OA [22]: 12
- Kd [23]: 27.5 ± 1.5 µM
- Kd [24]: 39.3 ± 1.6 µM
- Kd(mutant)/Kd(Wild-Type) for OA [25]: 65
- Kd [26]: 220 ± 9 µM
- Kd(mutant)/Kd(Wild-Type) for OA [27]: 150 and 152
- Kd [28]: 520 µM and 518 µM
- Kd [29]: > 75000 µM
- Kd [30]: 47.2 ± 0.2 µM
